Data on two compounds can be found in patent publication US12139768B2, “Polymerase chain reaction primers and probes for Mycobacterium tuberculosis” (Rutgers, The State University of New Jersey, priority 2014, dated 2024).

“Also recorded” adds a separate entry of the source.

Format in all cases: cell-based, Mycobacterium tuberculosis
The subject of assay [1] is M.tb isolates.
For assay [2], the system named is M.tb isolates. The source holds these as a separate data set.
In assay [3] the test system is M.tb isolates. The source holds these as a separate data set.

Consider `NC[C@H]1O[C@H](O[C@H]2[C@H](O)[C@@H](O[C@H]3O[C@H](CO)[C@@H](O)[C@H](N)[C@H]3O)[C@H](N)C[C@@H]2N)[C@H](O)[C@@H](O)[C@@H]1O` [KAN, Kanamycin], for which the “Total number of isolates Resistant (MGIT)” value in assay [1] is listed as 113. In assay [2], the “Total number of isolates Resistant (LJ)” value is given as 106.

In the case of `NCC[C@H](O)C(=O)N[C@@H]1C[C@H](N)[C@@H](O[C@H]2O[C@H](CN)[C@@H](O)[C@H](O)[C@H]2O)[C@H](O)[C@H]1O[C@H]1O[C@H](CO)[C@@H](O)[C@H](N)[C@H]1O` [AMK, Amikacin], in assay [2], the “Susceptibility in LJ media” value was “susceptible” and the “Total number of isolates Resistant (LJ)” value is listed as 90. Besides, the “Level of resistance” value in assay [3] is reported as “high level resistance; also recorded: no resistance to AMK”.
